From patent US9422267B2, “Fused pyrimidine compounds and use thereof” (Medivation Technologies, Inc., priority 2012, dated 2016) come the findings set out here.

Bounds are passed on as bounds.

The test system of one assay is SW-620. In words: Cell Titer-Glo cell viability: SW-620. Format: cell-based. As to conditions: Homo sapiens; SW-620, metastatic colorectal cancer; 72 h. The procedure:
(§1) This assay quantitates the ATP present in order to determine the number of viable cells in culture. Briefly, the compounds were incubated with the cells for 72 h, followed by cell lysis. The resulting luminescent signal is proportional to the amount of ATP present and, therefore, directly proportional to the number of cells present in culture.
(§2) Compound nos. […] These cell lines are derived from human lung carcinoma, colon adenocarcinoma, colon adenocarcinoma, colon carcinoma, acute promyelocytic leukemia, colon adenocarcinoma, colon adenocarcinoma (from metastatic site lymph node), respectively.
(§3) Compounds 2b, 5, 6b and 10a were tested along with derivatives in viability assays as described above by Caliper LifeSciences Systems (Hanover, Md.), in A549, HCT-15, HCT-116, MCF-7, MDA-MB-231, OVCAR3, T47D, COLO205, HT-29, BT-20, HCC1187, HL-60, MDA-MB-175, SW-620, and UACC812 cells.
(In general: In ATP-based viability assays light output follows the ATP content of the culture.)

In another assay the test system is HT-29. As to the kind of experiment: Cell Titer-Glo cell viability: HT-29. Format: cell-based. As to conditions: Homo sapiens, HT-29, 72 h, 72 h. The procedure:
as §1, §2, §3

The test system of a further assay is BT-20. In words: Cell Titer-Glo cell viability: BT-20. The assay is classed as cell-based. Conditions: Homo sapiens, BT-20; BT20, breast cancer; 72 h. The protocol: (§4) Compound nos. […] This panel of cell lines includes an ER− breast carcinoma, primary breast ductal carcinoma, prostate adenocarcinoma, mammary adenocarcinoma, mammary ductal carcinoma, mammary ductal carcinoma, ovary adenocarcinoma, ER+ breast carcinoma, ER-HER2+ mammary ductal carcinoma and an ER+ mammary ductal carcinoma, respectively.
as §1, §3

The test system of the next assay is ZR-75-1. As to the kind of experiment: Cell Titer-Glo cell viability: ZR-75-1. The assay is classed as cell-based. As to conditions: Homo sapiens; ZR-75-1, breast cancer; 72 h. The procedure: as §4, §1
In another assay the test system is LNCaP. In words: Cell Titer-Glo cell viability: LNCaP. The assay is classed as cell-based. As to conditions: Homo sapiens, prostate cancer, 72 h. The procedure: as §4, §1
A further assay relates to HCC 1187. As to the kind of experiment: Cell Titer-Glo cell viability: HCC 1187. Format: cell-based. Conditions: Homo sapiens; HCC1187, breast cancer; 72 h. The procedure:
as §4, §1, §3

The next assay relates to COLO 205. As to the kind of experiment: Cell Titer-Glo cell viability: COLO 205. The assay is classed as cell-based. Conditions: Homo sapiens; COLO-205, colon adenocarcinoma; 72 h. The protocol: as §1, §2, §3
The test system of a further assay is UACC 812. In words: Cell Titer-Glo cell viability: UACC 812. Format: cell-based. As to conditions: Homo sapiens, UACC-812; UACC812, breast cancer; 72 h. The protocol: as §4, §1, §3
The inhibitory effects of Compound 8a were tested in two cell lines.

The next assay relates to HCT-116. As to the kind of experiment: Cell Titer-Glo cell viability: HCT-116. The assay is classed as cell-based. As to conditions: Homo sapiens, HCT116, colon carcinoma, 72 h. The procedure: as §1, §2, §3
Another assay concerns MCF-7. As to the kind of experiment: Cell Titer-Glo cell viability: MCF-7. The assay is classed as cell-based. Conditions: Homo sapiens; MCF7, breast cancer; 72 h. The procedure:
as §4, §1, §3

The next assay deals with HL-60. In words: Cell Titer-Glo cell viability: HL-60. Conditions: 72 h. Format: cell-based, human. The procedure:
as §1, §2, §3

Assay [1] concerns Akt phosphorylation induced by IGF-1R in HT-29 cells. In words: Western blot analysis of Akt phosphorylation induced by IGF-1R. The assay is classed as cell-based, Human. Conditions: then IGF-1 10 ng/mL 10 min, HT-29. (In general: In western blotting, separated proteins are transferred to a membrane and probed.)
For another assay, the system named is HCT-15. As to the kind of experiment: Cell Titer-Glo cell viability: HCT-15. Format: cell-based. As to conditions: Homo sapiens, HCT-15; HCT15, colon carcinoma; 72 h. The protocol: as §1, §2, §3
For another assay, the system named is A549. As to the kind of experiment: Cell Titer-Glo cell viability: A549. The assay is classed as cell-based. Conditions: Homo sapiens; A549, non-small lung carcinoma; 72 h. The protocol:
as §1, §2, §3

In the next assay the test system is T47D. In words: Cell Titer-Glo cell viability: T47D. The assay is classed as cell-based. Conditions: Homo sapiens, breast cancer, 72 h. The procedure: as §4, §1, §3
In a further assay the test system is OVCAR-3. In words: Cell Titer-Glo cell viability: OVCAR-3. The assay is classed as cell-based. Conditions: Homo sapiens, OVCAR3, ovarian cancer, 72 h. The procedure:
as §4, §1, §3

On to `C[C@@]1(C(=O)Nc2ccc(F)nc2)CCCN1c1nc(Nc2cc(C3CC3)n[nH]2)c2cccn2n1` [BMS-754807, (S)-1-(4-(5-cyclopropyl-1H-pyrazol-3-ylamino)pyrrolo[1,2-f][1,2,4]triazin-2-yl)-N-(6-fluoropyridin-3-yl)-2-methylpyrrolidine-2-carboxamide, reference compound], for which the IC50 in the assay with SW-620 is 1 µM; in the assay with HT-29 (HT29, colon adenocarcinoma (second entry of the table)), less than 1 µM; with HT-29 (HT-29, colon cancer), less than 10 µM; with BT-20, less than 100 µM; with ZR-75-1, greater than 100 µM; in the assay on LNCaP, less than 10 µM. Also, the IC50 is less than 10 µM with HCC 1187; less than 1 µM in the assay with COLO 205; less than 100 µM in the assay on UACC 812; 10 µM in the assay with HCT-116; 0.1 µM in the assay with MCF-7; less than 10 µM with HL-60 (HL-60, promyelocytic leukemia). For the same molecule, the IC50 was less than 10 µM with HL-60 (Homo sapiens, HL-60, HL60, promyelocytic leukemia (second entry of the table)); less than 100 µM in the assay with HCT-15; less than 10 µM with A549; less than 10 µM in the assay with T47D; less than 10 µM with OVCAR-3. Moreover, the “phosphorylated AKT levels normalized to actin levels (pAKT/actin)” value in assay [1] (10 nM compound 2 h) is recorded as 0.09; in assay [1] (100 nM compound 2 h), 0.02.

Broadly, the IC50 is the concentration needed to halve the response being measured. Lower therefore signals inhibition by little substance.
